Source: US20180028516A1, “METHODS AND DEVICES FOR THE TREATMENT OF OCULAR DISEASES IN HUMAN SUBJECTS” (CLEARSIDE BIOMEDICAL, INC., priority 2012, published 2018)

Tests used:
Format in all cases: in vivo, New Zealand White rabbit
[1] = Ophthalmic examinations (slit lamp, fundus) and clinical observations after SCS TA (Example 9)
Protocol: In this study, the ocular tolerability and toxicokinetics of suprachoroidal administration of triamcinolone acetonide (TA) using a microneedle in a GLP study in the New Zealand White rabbit.
On Day 0, New Zealand White (NZW) rabbits were administered a single bilateral supraehoroidal injection of vehicle, 3.2 mg (80 μL) or 5.2 mg (130 μL) of TA (Triesence®, Alcoa labs) using a 33 g 750 μm microneedle. Clinical observations, slit lamp biomicroscopy with McDonald-Shadduck scoring, intraocular pressure assessment (IOP), electroretinography (ERG), and systemic exposure were assessed up to 26 weeks post-dose. Animals were sacrificed on Day 1, Week 13, and Week 26 for macroscopic observations, ocular toxicokinetics, and ocular histopathology.

[2] = Ocular and systemic pharmacokinetics of TA, SCS vs IVT (Example 10)
Protocol: In this study, the ocular and systemic pharmacokinetics (PK) of triar cinolone acetonide (TA) in the New Zealand White rabbit following intravitreal […] injection or administration into the suprachoroidal space (SCS) using a hollow rnicroneedle were evaluated.
On Day 0, male rabbits (5 per group) received a single bilateral administration of 4 mg TA (100 μL Triesence triamcinolone formulationAlcon Labs) via SCS injection using a 33 g 750 μm microneedle or an IVT injection using a standard 30 g needle. The study design is shown below in Table 4.
Clinical observations, body weights, and intraocular pressure (IOP) were assessed up to 13 weeks post-dose. Plasma and ocular matrixes (aqueous humor (AH), lens, iris/ciliary body (ICB), vitreous humor (VH), sclera/choroid (SC), and retina) were sampled on Days 1, 14, 28, 56, and 91. Plasma (LLOQ 0.5 ng/mL) and ocular matrixes (LLOQ 2 -15 ng/mL) were analyzed using LC-MS/MS, and resulting data were assessed for noncompartmentat PK parameters.

[3] = Ophthalmic examinations and clinical observations after 4 mg SCS TA (Example 16); conditions: single bilateral suprachoroidal injection of 4 mg TA, albino rabbit
Protocol: In this study, the ocular tolerability and toxicokinetics of suprachoroidal administration of Ting triamcinolone acetonide (TA) using microneedle was determined, in the New Zealand White rabbit as an animal model.
On Day 0, New Zealand White (NZW) rabbits (4/sex/group/terminal time point, 48 total) were administered a single bilateral suprachoroidal injection of 100 μL of 4 ma TA (40 mg/mL) or vehicle, using a 33 g 750 μm microneedle. Clinical Observations, body weights, food consumption, slit lamp biomicroscopy with McDonald-Shadduck scoring, indirect ophthalmoscopy, intraocular pressure assessment (IOP), central corneal thickness (CCT), electroretinography (ERG), serum chemistry and hematology, and systemic exposure were assessed up to 13 weeks post-dose. Animals were sacrificed on Day 1 or Week 13 and were evaluated for macroscopic observations at necropsy and ocular histopathology. Four animals/sex were given an additional suprachoroidal administration on Day 90, and will be followed for an additional 13 weeks.

[4] = 3.2 mg TA/eye SCS, F, 13 weeks post administration
[5] = 5.2 mg TA/eye SCS, F, 13 weeks post administration
[6] = 5.2 mg TA/eye SCS, M, 13 weeks post administration

In the case of `CC1(C)O[C@@H]2C[C@H]3[C@@H]4CCC5=CC(=O)C=C[C@]5(C)[C@@]4(F)[C@@H](O)C[C@]3(C)[C@]2(C(=O)CO)O1` [TA, triamcinolone acetonide], the “Conjunctival congestion (slight, transient), animals with finding” value [1, 4] is reported as 2, the “Conjunctival discharge (slight, transient), animals with finding” value [1, 4] is reported as 2 and the “Corneal Staining (slight, transient), animals with finding” value (shortened to “Corneal Staining (slight, transient)”) [1, 4] is reported as 1. The “Hyperemia (severe, transient), animals with finding” value [1, 4] was 1, the “Lens Defect (anatomic defect unrelated to administration), animals with finding” value [1, 4] was 1 and the “Corneal Staining (slight, transient)” value ([1]; 3.2 mg TA/eye SCS, M, 13 weeks post administration) was 1. The “Conjunctival discharge (slight, transient), animals with finding” value [1, 5] was 1, the “Corneal Staining (slight, transient)” value [1, 5] was 2 and the “Conjunctival congestion (slight, transient), animals with finding” value [1, 6] was 1. The “Corneal Staining (slight, transient)” value [1, 6] was 4, the “adverse effects on clinical observations, body weight, or ophthalmic examinations” value ([1]; 3.2 or 5.2 mg TA SCS) was “no adverse effects” and the “adverse effects related to treatment” value ([1]; 3.2 or 5.2 mg TA SCS) was “no observed adverse effects”. The “findings during slit lamp biomicroscopy and fundus examination” value ([1]; 3.2 or 5.2 mg TA SCS, up to 13 weeks) was “generally mild and transient in nature”, the “increase of AUC in VH, IVT TA compared with SCS TA” value ([2]; 4 mg TA) was 52 fold and the “increase of AUC in aqueous Humor, IVT TA compared with SCS TA” value ([2]; 4 mg TA) was 63 fold. For the same molecule, the “increase of AUC in iris/ciliary body, IVT TA compared with SCS TA” value ([2]; 4 mg TA) was 44 fold, the “increase of AUC in lens, IVT TA compared with SCS TA” value ([2]; 4 mg TA) was 690 fold and the “increase of AUC in the sclera/choroid, SCS TA compared with IVT TA” value ([2]; 4 mg TA) was 11 fold. The “increase of Cmax in VH, IVT TA compared with SCS TA” value ([2]; 4 mg TA) was 4 fold, the “increase of Cmax in aqueous Humor, IVT TA compared with SCS TA” value ([2]; 4 mg TA) was 250 fold and the “increase of Cmax in iris/ciliary body, IVT TA compared with SCS TA” value ([2]; 4 mg TA) was 24 fold. For the same molecule, the “increase of Cmax in lens, IVT TA compared with SCS TA” value ([2]; 4 mg TA) was 290 fold, the “increase of Cmax in the sclera/choroid, SCS TA compared with IVT TA” value ([2]; 4 mg TA) was 10 fold and the AUC0-t ([2]; Aqueous Humor, IVT 4 mg TA) was 8,500 ng · day/mL. The Clast ([2]; Aqueous Humor, IVT 4 mg TA) was 42 ng/mL, the Cmax ([2]; Aqueous Humor, IVT 4 mg TA) was 269 ng/mL and the Tlast ([2]; Aqueous Humor, IVT 4 mg TA) was 91 days. For the same molecule, the Tmax ([2]; Aqueous Humor, IVT 4 mg TA) was 336 h, the Clast ([2]; Aqueous Humor, SCS 4 mg TA) was 16 ng/mL and the Cmax ([2]; Aqueous Humor, SCS 4 mg TA) was 16 ng/mL. The Tlast ([2]; Aqueous Humor, SCS 4 mg TA) was 28 days, the AUC0-t ([2]; Iris/Ciliary body, IVT 4 mg TA) was 40,900,000 ng · day/mL and the Clast ([2]; Iris/Ciliary body, IVT 4 mg TA) was 463,000 ng/mL. For the same molecule, the Cmax ([2]; Iris/Ciliary body, IVT 4 mg TA) was 1,260,000 ng/mL, the Tlast ([2]; Iris/Ciliary body, IVT 4 mg TA) was 91 days and the Tmax ([2]; Iris/Ciliary body, IVT 4 mg TA) was 24 h. For the same molecule, the AUC0-t ([2]; Iris/Ciliary body, SCS 4 mg TA) was 1,190,000 ng · day/mL, the “AUC0-∞” value ([2]; Iris/Ciliary body, SCS 4 mg TA) was 1,190,000 ng · day/mL and the Clast ([2]; Iris/Ciliary body, SCS 4 mg TA) was 247 ng/mL. For the same molecule, the Cmax ([2]; Iris/Ciliary body, SCS 4 mg TA) was 50,200 ng/mL, the T1/2 ([2]; Iris/Ciliary body, SCS 4 mg TA) was 220 h and the Tlast ([2]; Iris/Ciliary body, SCS 4 mg TA) was 91 days. For the same molecule, the Tmax ([2]; Iris/Ciliary body, SCS 4 mg TA) was 24 h, the AUC0-t ([2]; Lens, IVT 4 mg TA) was 12,600,000 ng · day/mL and the Clast ([2]; Lens, IVT 4 mg TA) was 40,300 ng/mL. For the same molecule, the Cmax ([2]; Lens, IVT 4 mg TA) was 540,000 ng/mL, the Tlast ([2]; Lens, IVT 4 mg TA) was 91 days and the Tmax ([2]; Lens, IVT 4 mg TA) was 336 h. The AUC0-t ([2]; Lens, SCS 4 mg TA) was 27,400 ng · day/mL, the Clast ([2]; Lens, SCS 4 mg TA) was 9 ng/mL and the Cmax ([2]; Lens, SCS 4 mg TA) was 1,870 ng/mL. For the same molecule, the Tlast ([2]; Lens, SCS 4 mg TA) was 91 days, the Tmax ([2]; Lens, SCS 4 mg TA) was 24 h and the AUC0-t ([2]; Retina, IVT 4 mg TA) was 25,100,000 ng · day/mL. For the same molecule, the “AUC0-∞” value ([2]; Retina, IVT 4 mg TA) was 26,300,000 ng · day/mL, the Clast ([2]; Retina, IVT 4 mg TA) was 41,500 ng/mL and the Cmax ([2]; Retina, IVT 4 mg TA) was 781,000 ng/mL. For the same molecule, the T1/2 ([2]; Retina, IVT 4 mg TA) was 504 h, the Tlast ([2]; Retina, IVT 4 mg TA) was 91 days and the Tmax ([2]; Retina, IVT 4 mg TA) was 336 h. The AUC0-t ([2]; Retina, SCS 4 mg TA) was 24,600,000 ng · day/mL, the Clast ([2]; Retina, SCS 4 mg TA) was 2,600 ng/mL and the Cmax ([2]; Retina, SCS 4 mg TA) was 907,000 ng/mL. For the same molecule, the Tlast ([2]; Retina, SCS 4 mg TA) was 91 days, the Tmax ([2]; Retina, SCS 4 mg TA) was 24 h and the “quantifiability of TA in ocular matrixes” value ([2]; SCS and IVT, 4 mg TA) was “quantifiable in all ocular matrixes through Day 91”. For the same molecule, the AUC0-t ([2]; Sclera/choroid, IVT 4 mg TA) was 8,640,000 ng · day/mL, the “AUC0-∞” value ([2]; Sclera/choroid, IVT 4 mg TA) was 10,300,000 ng · day/mL and the Clast ([2]; Sclera/choroid, IVT 4 mg TA) was 27,100 ng/mL. The Cmax ([2]; Sclera/choroid, IVT 4 mg TA) was 235,000 ng/mL, the T1/2 ([2]; Sclera/choroid, IVT 4 mg TA) was 1030 h and the Tlast ([2]; Sclera/choroid, IVT 4 mg TA) was 91 days. The Tmax ([2]; Sclera/choroid, IVT 4 mg TA) was 336 h, the AUC0-t ([2]; Sclera/choroid, SCS 4 mg TA) was 101,000,000 ng · day/mL and the “AUC0-∞” value ([2]; Sclera/choroid, SCS 4 mg TA) was 101,000,000 ng · day/mL. For the same molecule, the Clast ([2]; Sclera/choroid, SCS 4 mg TA) was 34,000 ng/mL, the Cmax ([2]; Sclera/choroid, SCS 4 mg TA) was 2,860,000 ng/mL and the T1/2 ([2]; Sclera/choroid, SCS 4 mg TA) was 264 h. For the same molecule, the Tlast ([2]; Sclera/choroid, SCS 4 mg TA) was 91 days, the Tmax ([2]; Sclera/choroid, SCS 4 mg TA) was 24 h and the AUC0-t ([2]; Vitreous Humor, IVT 4 mg TA) was 77,600,000 ng · day/mL. The “AUC0-∞” value ([2]; Vitreous Humor, IVT 4 mg TA) was 85,500,000 ng · day/mL, the Clast ([2]; Vitreous Humor, IVT 4 mg TA) was 218,000 ng/mL and the Cmax ([2]; Vitreous Humor, IVT 4 mg TA) was 1,640,000 ng/mL. For the same molecule, the T1/2 ([2]; Vitreous Humor, IVT 4 mg TA) was 600 h, the Tlast ([2]; Vitreous Humor, IVT 4 mg TA) was 91 days and the Tmax ([2]; Vitreous Humor, IVT 4 mg TA) was 24 h. The AUC0-t ([2]; Vitreous Humor, SCS 4 mg TA) was 3,460,000 ng · day/mL, the Clast ([2]; Vitreous Humor, SCS 4 mg TA) was 10 ng/mL and the Cmax ([2]; Vitreous Humor, SCS 4 mg TA) was 287,000 ng/mL. The Tlast ([2]; Vitreous Humor, SCS 4 mg TA) was 91 days, the Tmax ([2]; Vitreous Humor, SCS 4 mg TA) was 24 h and the systemic exposure ([2]; either route (IVT or SCS), 4 mg TA) was “minimal”. For the same molecule, the “TA peak concentration in plasma” value ([2]; peaked on Day 1, both groups (SCS and IVT, 4 mg TA)) was 4 ng/mL and the tolerability [3] was “well tolerated”.
